One may read the inhibition as the share of the control response that was lost under treatment.

Experiment [1] relates to HL-60. Briefly: Growth inhibition of human HL60 cells at 1 uM after 3 days. The format is functional. The settings on record: HL-60, 72 h.
In experiment [2] the test system is HL-60. Briefly: Growth inhibition of human HL60 cells at 10 uM after 3 days. It is filed as functional. The settings on record: HL-60, 72 h.

`CCCCCCCCCCCCCCCCN[C@H]1C[C@@]2(C)[C@@H](CC[C@@H]3[C@@H]2CC[C@]2(C)[C@@H](O)CC[C@@H]32)C[C@@H]1O`: in experiment [1], the inhibition at 1 µM was found to be 0%. In experiment [2], this molecule gave an inhibition at 10 µM of 94.8%.
`CCCCCN1CCN([C@H]2C[C@@]3(C)[C@@H](CC[C@@H]4[C@@H]3CC[C@]3(C)[C@@H](O)CC[C@@H]43)C[C@@H]2O)CC1`: testing at 1 µM in experiment [1] gave an inhibition of 0%. The same molecule displayed an inhibition at 10 µM in experiment [2] of 7.7%.
In experiment [1], `CCCC(C)N1CCN([C@H]2C[C@@]3(C)[C@@H](CC[C@@H]4[C@@H]3CC[C@]3(C)[C@@H](O)CC[C@@H]43)C[C@@H]2O)CC1` (some centres not stated) showed an inhibition at 1 µM of 0%. The same molecule gave an inhibition at 10 µM in experiment [2] of 9.2%.
Take `C[C@]12C[C@H](N3CCN(CC4CCCCC4)CC3)[C@@H](O)C[C@@H]1CC[C@@H]1[C@@H]2CC[C@]2(C)[C@@H](O)CC[C@@H]12`: the inhibition at 1 µM in experiment [1] is 0%. In experiment [2], testing at 10 µM gave an inhibition of 4%.
`C[C@]12C[C@H](NCC34CC5CC(CC(C5)C3)C4)[C@@H](O)C[C@@H]1CC[C@@H]1[C@@H]2CC[C@]2(C)[C@@H](O)CC[C@@H]12` had an inhibition at 1 µM in experiment [1] of 6.4%. The molecule also had an inhibition at 10 µM in experiment [2] of 85.8%.
For `CC(C)CN[C@H]1C[C@@]2(C)[C@@H](CC[C@@H]3[C@@H]2CC[C@]2(C)[C@@H](O)CC[C@@H]32)C[C@@H]1O`, in that order: 0% and 0%.
For `CC(C)(C)N[C@H]1C[C@@]2(C)[C@@H](CC[C@@H]3[C@@H]2CC[C@]2(C)[C@@H](O)CC[C@@H]32)C[C@@H]1O`, in that order: 0% and 0.5%.
On the same counts, the results for `C[C@]12C[C@H](NC3CCCC3)[C@@H](O)C[C@@H]1CC[C@@H]1[C@@H]2CC[C@]2(C)[C@@H](O)CC[C@@H]12` are 0% and 0%.
In experiment [1], `C[C@]12C[C@H](NC3CCCCC3)[C@@H](O)C[C@@H]1CC[C@@H]1[C@@H]2CC[C@]2(C)[C@@H](O)CC[C@@H]12` registered an inhibition at 1 µM of 0%. In experiment [2], this molecule displayed an inhibition at 10 µM of 0%.
Consider `CC(C)N[C@H]1C[C@@]2(C)[C@@H](CC[C@@H]3[C@@H]2CC[C@]2(C)[C@@H](O)CC[C@@H]32)C[C@@H]1O`, for which testing at 1 µM in experiment [1] gave an inhibition of 0%. The same molecule gave an inhibition at 10 µM in experiment [2] of 0%.
`CCCCN[C@H]1C[C@@]2(C)[C@@H](CC[C@@H]3[C@@H]2CC[C@]2(C)[C@@H](O)CC[C@@H]32)C[C@@H]1O` registered an inhibition at 1 µM in experiment [1] of 0%. In experiment [2], this molecule had an inhibition at 10 µM of 3.1%.
The molecule `CCCCCCCCCCCN[C@H]1C[C@@]2(C)[C@@H](CC[C@@H]3[C@@H]2CC[C@]2(C)[C@@H](O)CC[C@@H]32)C[C@@H]1O` returned an inhibition at 1 µM in experiment [1] of 0%. In experiment [2], the inhibition at 10 µM came to 96.3%.
In turn, `CCCCCN[C@H]1C[C@@]2(C)[C@@H](CC[C@@H]3[C@@H]2CC[C@]2(C)[C@@H](O)CC[C@@H]32)C[C@@H]1O` returned an inhibition at 1 µM in experiment [1] of 0%. In addition, 10 µM produced 0% inhibition in experiment [2].
With `CC(C)(C)CN[C@H]1C[C@@]2(C)[C@@H](CC[C@@H]3[C@@H]2CC[C@]2(C)[C@@H](O)CC[C@@H]32)C[C@@H]1O`, the inhibition at 1 µM in experiment [1] stood at 0%. In experiment [2], this molecule showed an inhibition at 10 µM of 3.3%.
For `CCC(C)(C)N[C@H]1C[C@@]2(C)[C@@H](CC[C@@H]3[C@@H]2CC[C@]2(C)[C@@H](O)CC[C@@H]32)C[C@@H]1O`, testing at 1 µM in experiment [1] gave an inhibition of 0%. Moreover, in experiment [2], testing at 10 µM gave an inhibition of 1.8%.
`C[C@]12C[C@H](N3CCN(C(=O)C4CCCCC4)CC3)[C@@H](O)C[C@@H]1CC[C@@H]1[C@@H]2CC[C@]2(C)[C@@H](O)CC[C@@H]12`: in experiment [1], testing at 1 µM gave an inhibition of 0%. In experiment [2], this molecule came in with an inhibition at 10 µM of 3.9%.
Consider `CCCCOCCCN[C@H]1C[C@@]2(C)[C@@H](CC[C@@H]3[C@@H]2CC[C@]2(C)[C@@H](O)CC[C@@H]32)C[C@@H]1O`, for which the inhibition at 1 µM in experiment [1] was 4.8%. The molecule further registered an inhibition at 10 µM in experiment [2] of 26.5%.
`C[C@]12C[C@H](N3CCN(C(=O)c4ccccc4)CC3)[C@@H](O)C[C@@H]1CC[C@@H]1[C@@H]2CC[C@]2(C)[C@@H](O)CC[C@@H]12` gave an inhibition at 1 µM in experiment [1] of 0%. At 10 µM the inhibition in experiment [2] was 11.4%.
`CCCCC(=O)N1CCN([C@H]2C[C@@]3(C)[C@@H](CC[C@@H]4[C@@H]3CC[C@]3(C)[C@@H](O)CC[C@@H]43)C[C@@H]2O)CC1` yielded an inhibition at 1 µM in experiment [1] of 0%. In experiment [2], this molecule gave an inhibition at 10 µM of 7.4%.
For `CCCCCCCN[C@H]1C[C@@]2(C)[C@@H](CC[C@@H]3[C@@H]2CC[C@]2(C)[C@@H](O)CC[C@@H]32)C[C@@H]1O`, in that order: 10.1% and 82.3%.
As to `CCCN1CCN([C@H]2C[C@@]3(C)[C@@H](CC[C@@H]4[C@@H]3CC[C@]3(C)[C@@H](O)CC[C@@H]43)C[C@@H]2O)CC1`, in experiment [1], the inhibition at 1 µM was 0%. Besides, 10 µM produced 0% inhibition in experiment [2].
With `CN1CCN([C@H]2C[C@@]3(C)[C@@H](CC[C@@H]4[C@@H]3CC[C@]3(C)[C@@H](O)CC[C@@H]43)C[C@@H]2O)CC1`, the inhibition at 1 µM in experiment [1] is 0%. This molecule also displayed an inhibition at 10 µM in experiment [2] of 16.2%.
`CCCCCCN[C@H]1C[C@@]2(C)[C@@H](CC[C@@H]3[C@@H]2CC[C@]2(C)[C@@H](O)CC[C@@H]32)C[C@@H]1O` showed an inhibition at 1 µM in experiment [1] of 0%. In experiment [2], this molecule yielded an inhibition at 10 µM of 6.9%.
With `CCCCN1CCN([C@H]2C[C@@]3(C)[C@@H](CC[C@@H]4[C@@H]3CC[C@]3(C)[C@@H](O)CC[C@@H]43)C[C@@H]2O)CC1`, testing at 1 µM in experiment [1] gave an inhibition of 0%. For the same molecule, in experiment [2], 10 µM produced 7.6% inhibition.
On the same counts, the results for `CCCCCCCCCN[C@H]1C[C@@]2(C)[C@@H](CC[C@@H]3[C@@H]2CC[C@]2(C)[C@@H](O)CC[C@@H]32)C[C@@H]1O` are 3.9% and 89.9%.
For `CCCN[C@H]1C[C@@]2(C)[C@@H](CC[C@@H]3[C@@H]2CC[C@]2(C)[C@@H](O)CC[C@@H]32)C[C@@H]1O`, in that order: 0% and 0.4%.
Regarding `C[C@]12C[C@H](NCCCc3ccccc3)[C@@H](O)C[C@@H]1CC[C@@H]1[C@@H]2CC[C@]2(C)[C@@H](O)CC[C@@H]12`, in experiment [1], 1 µM produced 0.9% inhibition. The molecule further came in with an inhibition at 10 µM in experiment [2] of 37.6%.
Regarding `CCN(CC)[C@H]1C[C@@]2(C)[C@@H](CC[C@@H]3[C@@H]2CC[C@]2(C)[C@@H](O)CC[C@@H]32)C[C@@H]1O`, the inhibition at 1 µM in experiment [1] worked out at 0%. Also, the inhibition at 10 µM in experiment [2] came out at 6.7%.
Regarding `CCCCCCCCCCCN(CCCCCCCCCCC)[C@H]1C[C@@]2(C)[C@@H](CC[C@@H]3[C@@H]2CC[C@]2(C)[C@@H](O)CC[C@@H]32)C[C@@H]1O`, in experiment [1], the inhibition at 1 µM came to 11.7%. The same molecule yielded an inhibition at 10 µM in experiment [2] of 7%.
In turn, `CCCCCCCCCN(CCCCCCCCC)[C@H]1C[C@@]2(C)[C@@H](CC[C@@H]3[C@@H]2CC[C@]2(C)[C@@H](O)CC[C@@H]32)C[C@@H]1O` returned an inhibition at 1 µM in experiment [1] of 9.8%. The molecule also yielded an inhibition at 10 µM in experiment [2] of 41.5%.
In turn, `CCCCCCCCC(=O)N1CCN([C@H]2C[C@@]3(C)[C@@H](CC[C@@H]4[C@@H]3CC[C@]3(C)[C@@H](O)CC[C@@H]43)C[C@@H]2O)CC1` returned an inhibition at 1 µM in experiment [1] of 8.1%. The molecule further returned an inhibition at 10 µM in experiment [2] of 99%.
As to `C[C@]12C[C@H](NCCc3ccccc3)[C@@H](O)C[C@@H]1CC[C@@H]1[C@@H]2CC[C@]2(C)[C@@H](O)CC[C@@H]12`, the inhibition at 1 µM in experiment [1] is 9.5%. In experiment [2], this molecule came in with an inhibition at 10 µM of 42.8%.
For the molecule `CC(C)CCN[C@H]1C[C@@]2(C)[C@@H](CC[C@@H]3[C@@H]2CC[C@]2(C)[C@@H](O)CC[C@@H]32)C[C@@H]1O`, the inhibition at 1 µM in experiment [1] came out at 0%. In addition, the inhibition at 10 µM in experiment [2] was found to be 3%.
Molecule `CCCCCCCCCCCCN[C@H]1C[C@@]2(C)[C@@H](CC[C@@H]3[C@@H]2CC[C@]2(C)[C@@H](O)CC[C@@H]32)C[C@@H]1O` returned an inhibition at 1 µM in experiment [1] of 0%. Also, testing at 10 µM in experiment [2] gave an inhibition of 92%.
`CCOCCCN[C@H]1C[C@@]2(C)[C@@H](CC[C@@H]3[C@@H]2CC[C@]2(C)[C@@H](O)CC[C@@H]32)C[C@@H]1O`: testing at 1 µM in experiment [1] gave an inhibition of 0%. The molecule also gave an inhibition at 10 µM in experiment [2] of 10.8%.
`CC(C)CC(=O)N1CCN([C@H]2C[C@@]3(C)[C@@H](CC[C@@H]4[C@@H]3CC[C@]3(C)[C@@H](O)CC[C@@H]43)C[C@@H]2O)CC1` had an inhibition at 1 µM in experiment [1] of 0%. The molecule further showed an inhibition at 10 µM in experiment [2] of 5.5%.
Consider `C[C@]12C[C@H](NC3CCCCCC3)[C@@H](O)C[C@@H]1CC[C@@H]1[C@@H]2CC[C@]2(C)[C@@H](O)CC[C@@H]12`, for which, in experiment [1], testing at 1 µM gave an inhibition of 0%. In experiment [2], this molecule had an inhibition at 10 µM of 0%.
In turn, `CC(C)CN1CCN([C@H]2C[C@@]3(C)[C@@H](CC[C@@H]4[C@@H]3CC[C@]3(C)[C@@H](O)CC[C@@H]43)C[C@@H]2O)CC1` displayed an inhibition at 1 µM in experiment [1] of 0%. In experiment [2], this molecule had an inhibition at 10 µM of 5%.
In experiment [1], `CCCCCCCCCCN[C@H]1C[C@@]2(C)[C@@H](CC[C@@H]3[C@@H]2CC[C@]2(C)[C@@H](O)CC[C@@H]32)C[C@@H]1O` showed an inhibition at 1 µM of 0%. In experiment [2], this molecule had an inhibition at 10 µM of 96.9%.
Regarding `CC(C)C(=O)N1CCN([C@H]2C[C@@]3(C)[C@@H](CC[C@@H]4[C@@H]3CC[C@]3(C)[C@@H](O)CC[C@@H]43)C[C@@H]2O)CC1`, the inhibition at 1 µM in experiment [1] came out at 0%. In experiment [2], this molecule gave an inhibition at 10 µM of 1.1%.
On the same counts, the results for `C[C@]12C[C@H](N3CCN(Cc4ccccc4)CC3)[C@@H](O)C[C@@H]1CC[C@@H]1[C@@H]2CC[C@]2(C)[C@@H](O)CC[C@@H]12` are 0% and 25.7%.

Values taken from ChEMBL document CHEMBL1157187, “Chemical synthesis of 2beta-amino-5alpha-androstane-3alpha,17beta-diol N-derivatives and their antiproliferative effect on HL-60 human leukemia cells” (Bioorg Med Chem, 2008).
